Assays:
rabbit complement system = assay: Complement-mediated red blood cell (RBC) hemolysis assay, ex vivo, rabbit plasma on human erythrocytes; type: in vivo; details: plasma after 3 h reperfusion, 50 mg/kg, 4 days; p<0.01
Experimental: A red blood cell (RBC) lysis assay was used to determine whether the pretreatment with DDA compared to placebo-treated animals was able to inhibit the rabbit complement system. The ex vivo analysis of complement activity is based on the C5b-9-dependent lysis of human red blood cells upon exposure to rabbit plasma. Complement-mediated RBC hemolysis was assessed by a turbidometric method described previously (Pascual et al., 1990). The hemolysis assay is an accepted method of assessing the complement titer of plasma or serum samples (Whaley, 1985). Rabbit plasma was obtained from whole blood samples drawn from rabbits that were pretreated with DDA (50 mg/kg, 4 days, n=5) or sterile 0.9% sodium chloride solution (4 days, n=5). After obtaining informed consent, human whole blood for the isolation of red blood cells was obtained by venipuncture of the forearm vein of a healthy donor who had not been exposed to any medication for the past seven days. The cells were washed three times in 10 ml phosphate buffered saline (PBS, pH 7.4) and diluted in PBS to achieve a final RBC concentration of 1×10^8 cells/ml. The assay was initiated by the addition of 15 μl of diluted human RBCs to 185 μl of rabbit plasma, and the light transmittance was monitored for 5 min. The final assay volume was 200 μl. […]

Sprague-Dawley rats = details: 50 mg/kg i.v., four days; cited from earlier work
CRP = CRP deposition in heart tissue by indirect immunofluorescence; type: in vivo, rabbit; details: rabbits, 50 mg/kg i.v. 4 days, 30 min ischemia, 3 h reperfusion; p<0.05
Experimental: The immunofluorescent method for detection of CRP was performed essentially as described previously (Lauver et al., 2005). Briefly, tissue samples used for infarct size determination were fixed in 10% buffered formalin immediately after the completion of the experimental protocol. The tissue samples were embedded in paraffin blocks and cut into sections of 2 μm in thickness, which were then mounted on glass slides. Two consecutive sections (mirror images) from a single heart slice were mounted on each slide. The slides were deparaffinized and subjected to antigen unmasking using a commercially available kit for this purpose (Vector Laboratories, Burlingame, Calif.). After blocking for 30 minutes, primary antibodies were incubated at room temperature in a humidity chamber for 45 minutes. One section per slide was incubated with a chicken anti-rabbit CRP antibody (5 μg/ml final concentration, Strategic BioSolutions, Newark, Del.) and the other section was incubated with a chicken anti-rabbit MAC antibody (1:2500 final dilution, developed in conjunction with Lampire Biological Laboratories, Pipersville, Pa.). […] Images were analyzed using IP Lab (Scanalytics, Inc., Fairfax, Va.) software to determine mean fluorescence intensity per heart section. […]

[1] = Determination of aqueous solubility/dispersibility; type: physicochemical; details: deionized water
Experimental: (§1) 30.13 mg of 3 was added to 1 mL of USP-purified water. The sample was rotated for 2 hours, then centrifuged for 5 minutes. After centrifuging, solid was visible in the bottom of the tube. A 125-μL aliquot of the solution was then diluted to 25 mL. The sample was analyzed by UV/Vis spectroscopy at 436 nm, and the absorbance was compared to a standard curve compiled from 4 standards of known concentration. The concentration of the original supernatant was calculated to be 2.85 mg/mL and the absorptivity was 36.94 AU*mL/cm*mg. Slight error may have been introduced by the small size of the original aliquot.
as §1, with “Next, 30.80” for “30.13”, “9” for “3”, “411” for “436”, “29.27” for “2.85”, “2.90” for “36.94”

[2] = oral administration to black mice (Showalter et al. 2004); cited from earlier work
[3] = system: cardiac-specific troponin I (cTnI); assay: Measurement of cardiac-specific troponin I by ELISA; type: in vivo, rabbit; details: rabbits, 50 mg/kg i.v. 4 days; not statistically significant
Experimental: Whole blood was drawn at baseline (pre-ischemia) and at the end of reperfusion for the determination of cardiac-specific troponin I (cTnI). Serum levels of the proteins were measured using a commercially available ELISA kit. Collected plasma samples were prepared from whole blood and were snap frozen in liquid nitrogen. The samples were stored at −80° C. until the day of the assay when they were thawed over ice and diluted appropriately with the sample diluent supplied with each assay kit. Determination of the target protein using a protein standard curve was performed according to standard procedure in the art.

CC1=C(/C=C/C(C)=C/C=C/C(C)=C/C=C/C=C(C)/C=C/C=C(C)/C=C/C2=C(C)C(=O)C(OC(=O)CCC(=O)O)CC2(C)C)C(C)(C)CC(OC(=O)CCC(=O)O)C1=O (stereo not drawn) [DDA, disodium disuccinate astaxanthin]
rabbit plasma-induced human erythrocyte hemolysis versus placebo (rabbit complement system): significantly attenuated | mean myocardial salvage (Sprague-Dawley rats): 41% | CRP deposition in infarct region (fluorescence intensity) versus saline (CRP): significantly reduced fluorescence | maximum aqueous dispersibility [1]: greater than 10 mM | plasma clearance of free astaxanthin and tissue/serum ratios [2]: Rapid plasma clearance of free astaxanthin, and excellent myocardium- and hepatic/serum ratios | mean serum cTnI concentration at the end of reperfusion versus vehicle controls [3]: lower mean cTnI concentration

Source: US9180111B2, “Reduction in complement activation and inflammation during tissue injury by carotenoids, carotenoid analogs, or derivatives thereof” (Cardax Pharma, Inc., priority 2005, dated 2015)
